Measured values reported in patent US7534894B2, “Biphenyloxy-acids” (Wyeth, priority 2003, dated 2009).

Columns and labels:
[1] = molecular target: T1, recombinant human plasminogen activator inhibitor-1 (PAI-1) (Homo sapiens, UniProt P05121); experiment: Primary Screen for the PAI-1 Inhibition (residual tPA activity, chromogenic substrate Spectrozyme-tPA); assay type: biochemical; settings: 140 nM PAI-1, 70 nM tPA, pH 6.6
T1 construct: purchased Molecular Innovations, Royal Oak, Mich
Method: (§1) Test compounds are dissolved in DMSO at a final concentration of 10 mM, then diluted 101× in physiologic buffer. The inhibitory assay is initiated by the addition of the test compound (1-100 μM final concentration, maximum DMSO concentration of 0.2%) in a pH 6.6 buffer containing 140 nM recombinant human plasminogen activator inhibitor-1 (PAI-1; Molecular Innovations, Royal Oak, Mich.). Following a 1 hour incubation at room temperature, 70 nM of recombinant human tissue plasminogen activator (tPA) is added, and the combination of the test compound, PAI-1 and tPA is incubated for an additional 30 minutes. Following the second incubation, Spectrozyme-tPA (American Diagnostica, Greenwich, Conn.), a chromogenic substrate for tPA, is added and absorbance read at 405 nm at 0 and 60 minutes. Relative PAI-1 inhibition is equal to the residual tPA activity in the presence of the test compound and PAI-1. Control treatments include the complete inhibition of tPA by PAI-1 at the molar ratio employed (2:1), and the absence of any effect of the test compound on tPA alone.

[2] = molecular target: T1, recombinant human plasminogen activator inhibitor-1 (PAI-1); experiment: Kinetic IC50: modification of the Primary Screen for the PAI-1 Inhibition; assay type: biochemical
Method: as §1

T1 sequence (P05121 24-402): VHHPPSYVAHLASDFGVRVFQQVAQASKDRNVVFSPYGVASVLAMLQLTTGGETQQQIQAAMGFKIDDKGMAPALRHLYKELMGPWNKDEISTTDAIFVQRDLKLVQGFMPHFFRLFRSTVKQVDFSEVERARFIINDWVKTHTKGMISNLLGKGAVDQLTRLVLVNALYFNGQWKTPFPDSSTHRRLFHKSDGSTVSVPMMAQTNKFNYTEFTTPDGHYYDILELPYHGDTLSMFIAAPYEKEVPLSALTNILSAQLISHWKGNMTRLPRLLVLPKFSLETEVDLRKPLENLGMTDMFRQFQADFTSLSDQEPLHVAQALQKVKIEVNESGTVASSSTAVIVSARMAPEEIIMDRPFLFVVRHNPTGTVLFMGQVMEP

Row | Structure (SMILES) | inhibition at 25 µM ([1]; 25 μM test compound) | inhibition at 100 µM ([1]; 100 μM test compound) | IC50 [2] | % Inhibition 25 μM ([1]; 25 μM test compound) | % Inhibition 100 μM ([1]; 100 μM test compound)
1 | CCCCc1oc2ccccc2c1C(=O)N(Cc1ccccc1)Cc1ccc(-c2ccc(OCc3nnn[nH]3)c(Br)c2)cc1 [Compound 11, N-benzyl-N-{[3′-bromo-4′-(1H-tetraazol-5-ylmethoxy)-1,1′-biphenyl-4-yl]methyl}-2-butyl-1-benzofuran-3-carboxamide] | 53% | – | – | – | –
2 | O=C(O)C(Cc1ccccc1)Oc1cccc(-c2ccc(NC(=O)C3(c4ccc(Cl)cc4)CCC3)cc2)c1 (stereo not drawn) [Compound 39, 2-{[4′-({[1-(4-chlorophenyl)cyclobutyl]carbonyl}amino)-1,1′-biphenyl-3-yl]oxy}-3-phenylpropanoic acid] | 40% | 81% | 12 µM | – | –
3 | CCCc1c(C(=O)NCc2ccc(-c3ccc(OCc4nnn[nH]4)c(Br)c3)cc2)cnn1-c1ccccc1 [Compound 5, N-{[3′-bromo-4′-(H-tetraazol-5-ylmethoxy)[1,1′-biphenyl]-4-yl]methyl}-1-phenyl-5-propyl-1H-pyrazole-4-carboxamide] | – | – | – | 23% | 73%
4 | O=C(Nc1ccc(-c2cccc(OC(Cc3ccccc3)C(=O)O)c2)cc1)c1cc(-c2ccc(-c3ccccc3)cc2)oc1C(F)(F)F (stereo not drawn) [Compound 42, 2-[(4′-{[5-(1,1′-biphenyl-4-yl)-2-(trifluoromethyl)-3-furoyl]amino}-1,1′-biphenyl-3-yl)oxy]-3-phenylpropanoic acid] | 35% | 57% | 18.6 µM | – | –
5 | O=C(Nc1ccc(-c2cccc(OC(Cc3ccccc3)C(=O)O)c2)cc1)c1cccc2c1-c1ccccc1C2 (stereo not drawn) [Compound 24, 2-({4′-[(9H-fluoren-4-ylcarbonyl)amino]-1,1′-biphenyl-3-yl}oxy)-3-phenylpropanoic acid] | 36% | 51% | 12.1 µM | – | –
6 | O=C(O)C(Cc1ccccc1)Oc1ccc(-c2ccc(NC(=O)C3(c4ccccc4)CCCC3)cc2)cc1 (stereo not drawn) [Compound 31, 3-phenyl-2-[(4′-{[(1-phenylcyclopentyl)carbonyl]amino}-1,1′-biphenyl-4-yl)oxy]Propanoic acid] | 24% | 51% | 31.1 µM | – | –
7 | O=C(O)C(Cc1ccccc1)Oc1cccc(-c2ccc(NC(=O)C3(c4ccc(Cl)cc4)CCCC3)cc2)c1 (stereo not drawn) [Compound 26, 2-{[4′-({[1-(4-chlorophenyl)cyclopentyl]carbonyl}amino)-1,1′-biphenyl-3-yl]oxy}-3-phenylpropanoic acid] | 58% | 69% | 16.4 µM | – | –
8 | O=C(O)C(Cc1ccccc1)Oc1cccc(-c2ccc(NC(=O)C3(c4ccc(Cl)cc4)CCCCC3)cc2)c1 (stereo not drawn) [Compound 51, 2-{[4′-({[1-(4-chlorophenyl)cyclohexyl]carbonyl}amino)-1,1′-biphenyl-3-yl]oxy}-3-phenylpropanoic acid] | 46% | 60% | – | – | –
9 | O=C(Nc1ccc(-c2cccc(OC(Cc3ccccc3)C(=O)O)c2)cc1)c1cc2cc(OCc3ccccc3)ccc2[nH]1 (stereo not drawn) [Compound 28, 2-{[4′-({[5-(benzyloxy)-1H-indol-2-yl]carbonyl}amino)-1,1′-biphenyl-3-yl]oxy}-3-phenylpropanoic acid] | 27% | 70% | 7.41 µM | – | –
10 | Cc1cc(C)c2c(c1C(=O)Nc1ccc(-c3cccc(OC(Cc4ccccc4)C(=O)O)c3)cc1)CC(C)(C)C2=O (stereo not drawn) [Compound 54, 3-phenyl-2-[(4′-{[(2,2,5,7-tetramethyl-1-oxo-2,3-dihydro-1H-inden-4-yl)carbonyl]amino}-1,1′-biphenyl-3-yl)oxy]propanoic acid] | 29% | 85% | – | – | –
11 | Cn1cc(C(=O)N(Cc2ccccc2)Cc2ccc(-c3ccc(OCc4nnn[nH]4)c(Br)c3)cc2)c2ccccc21 [Compound 12, N-benzyl-N-{[3′-bromo-4′-(1H-tetraazol-5-ylmethoxy)-1,1′-biphenyl-4-yl]methyl}-1-methyl-1H-indole-3-carboxamide] | 55% | – | – | – | –
12 | CCCCOc1ccc2cc(C(=O)Nc3ccc(-c4ccc(OC(Cc5ccccc5)C(=O)O)cc4)cc3)ccc2c1 (stereo not drawn) [Compound 56, 2-({4′-[(6-butoxy-2-naphthoyl)amino]-1,1′-biphenyl-4-yl}oxy)-3-phenylpropanoic acid] | – | 53% | – | – | –
13 | O=C(O)C(Cc1ccccc1)Oc1cccc(-c2ccc(NC(=O)C3(c4ccccc4)CC3)cc2)c1 (stereo not drawn) [Compound 53, 3-phenyl-2-[(4′-{[(1-phenylcyclopropyl)carbonyl]amino}-1,1′-biphenyl-3-yl)oxy]propanoic acid] | 19% | 52% | – | – | –

More lines, main results first:

Row | inhibition at 25 µM ([1]; 25 μM test compound) | inhibition at 100 µM ([1]; 100 μM test compound) | IC50 [2] | Structure (SMILES) | % Inhibition 25 μM ([1]; 25 μM test compound) | % Inhibition 100 μM ([1]; 100 μM test compound)
14 | 40% | 66% | – | CCCc1ccc(-c2ccc(C(=O)Nc3ccc(-c4ccc(OC(Cc5ccccc5)C(=O)O)cc4)cc3)cc2)cc1 (stereo not drawn) [Compound 20, 3-phenyl-2-[(4′-{[(4′-propyl-1,1′-biphenyl-4-yl)carbonyl]amino}-1,1′-biphenyl-4-yl)oxy]propanoic acid] | – | –
15 | 1% | 60% | – | O=C(O)COc1ccc(-c2ccc(CNC(=O)c3cnn(-c4ccccc4)c3C(F)(F)F)cc2)cc1 [Compound 1, ({4′-[({[1-phenyl-5-(trifluoromethyl)-1H-pyrazol-4-yl]carbonyl}amino)methyl][1,1′-biphenyl]-4-yl}oxy)acetic acid] | – | –
16 | 33% | 70% | 38.6 µM | O=C(O)C(Cc1ccccc1)Oc1ccc(-c2ccc(NC(=O)C3(c4cccc(F)c4)CCCC3)cc2)cc1 (stereo not drawn) [Compound 34, 2-{[4′-({[1-(3-fluorophenyl)cyclopentyl]carbonyl}amino)-1,1′-biphenyl-4-yl]oxy}-3-phenylpropanoic acid] | – | –
17 | 15% | 80% | 39.3 µM | O=C(O)COc1ccc(-c2ccc(NC(=O)C3(c4ccc(Cl)cc4)CCC3)cc2)cc1 [Compound 35, {[4′-({[1-(4-chlorophenyl)cyclobutyl]carbonyl}amino)-1,1′-biphenyl-4-yl]oxy}acetic acid] | – | –
18 | 29% | 75% | 18.3 µM | O=C(O)COc1ccc(-c2ccc(NC(=O)c3cc(-c4ccc(-c5ccccc5)cc4)oc3C(F)(F)F)cc2)cc1 [Compound 36, [(4′-{[5-(1,1′-biphenyl-4-yl)-2-(trifluoromethyl)-3-furoyl]amino}-1,1′-biphenyl-4-yl)oxy]acetic acid] | – | –
19 | 14% | 83% | 18.1 µM | O=C(O)C(Cc1ccccc1)Oc1ccc(-c2ccc(NC(=O)C3(c4ccc(Cl)cc4)CCC3)cc2)cc1 (stereo not drawn) [Compound 47, 2-{[4′-({[1-(4-chlorophenyl)cyclobutyl]carbonyl}amino)-1,1′-biphenyl-4-yl]oxy}-3-phenylpropanoic acid] | – | –
20 | 25% | 90% | 8.71 µM | CCCCc1oc2ccccc2c1C(=O)Nc1ccc(-c2ccc(OC(Cc3ccccc3)C(=O)O)cc2)cc1 (stereo not drawn) [Compound 49, 2-[(4′-{[(2-butyl-1-benzofuran-3-yl)carbonyl]amino}-1,1′-biphenyl-4-yl)oxy]-3-phenylpropanoic acid] | – | –
21 | 34% | 58% | – | O=C(Nc1ccc(-c2ccc(OC(Cc3ccccc3)C(=O)O)cc2)cc1)c1sc2ccccc2c1Cl (stereo not drawn) [Compound 57, 2-[(4′-{[(3-chloro-1-benzothien-2-yl)carbonyl]amino}-1,1′-biphenyl-4-yl)oxy]-3-phenylpropanoic acid] | – | –
22 | 26% | 53% | – | O=C(Nc1ccc(-c2ccc(OC(Cc3ccccc3)C(=O)O)cc2)cc1)c1ccc2ccccc2c1 (stereo not drawn) [Compound 55, 2-{[4′-(2-naphthoylamino)-1,1′-biphenyl-4-yl]oxy}-3-phenylpropanoic acid] | – | –
23 | 30% | 89% | – | O=C(O)COc1ccc(-c2ccc(NC(=O)C3(c4ccc(Cl)cc4)CCCC3)cc2)cc1 [Compound 22, {[4′-({[1-(4-chlorophenyl)cyclopentyl]carbonyl}amino)-1,1′-biphenyl-4-yl]oxy}acetic acid] | – | –
24 | 31% | 90% | 10.2 µM | O=C(Nc1ccc(-c2cccc(OC(Cc3ccccc3)C(=O)O)c2)cc1)c1cc(-c2ccccc2Cl)oc1C(F)(F)F (stereo not drawn) [Compound 40, 2-[(4′-{[5-(2-chlorophenyl)-2-(trifluoromethyl)-3-furoyl]amino}-1,1′-biphenyl-3-yl)oxy]-3-phenylpropanoic acid] | – | –
25 | 3% | 77% | – | O=C(O)COc1ccc(-c2ccc(NC(=O)C3(c4cccc(F)c4)CCCC3)cc2)cc1 [Compound 23, {[4′-({[1-(3-fluorophenyl)cyclopentyl]carbonyl}amino)-1,1′-biphenyl-4-yl]oxy}acetic acid] | – | –
26 | 55% | 53% | – | O=C(O)C(Cc1ccccc1)Oc1ccc(-c2ccc(NC(=O)C3(c4ccc(Cl)cc4)CCCC3)cc2)cc1 (stereo not drawn) [Compound 52, 2-{[4′-({[1-(4-chlorophenyl)cyclopentyl]carbonyl}amino)-1,1′-biphenyl-4-yl]oxy}-3-phenylpropanoic acid] | – | –
27 | 28% | 52% | – | O=C(Nc1ccc(-c2ccc(OC(Cc3ccccc3)C(=O)O)cc2)cc1)c1ccc(-c2ccc(Cl)cc2)o1 (stereo not drawn) [Compound 21, 2-[(4′-{[5-(4-chlorophenyl)-2-furoyl]amino}-1,1′-biphenyl-4-yl)oxy]-3-phenylpropanoic acid] | – | –
